# Data as given in PubChem BioAssay (NCI).
#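 All cell lines were grown in 96-well plates and treated with compound for 48 hours. GI50 is the concentration that inhibits growth by half. TGI denotes the concentration required for complete inhibition of growth.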
# Tests used:
# Assay in all cases: NCI anticancer screen, dose series, 48 h
# A549 NSCLC = system: A549 NSCLC
# ACHN renal = system: ACHN renal
# DU-145 prostate = system: DU-145 prostate
# HOP-92 NSCLC = system: HOP-92 NSCLC
# NCI-H226 lung = system: NCI-H226 lung
# NCI-H460 lung = system: NCI-H460 lung
# NCI/ADR-RES ovarian = system: NCI/ADR-RES ovarian
# RXF 393 renal = system: RXF 393 renal
# TK-10 renal = system: TK-10 renal
# UACC-257 melanoma = system: UACC-257 melanoma
smiles,measurement,setting,value
O=C(O)C(O)C(O)C(O)C(=O)CO (centres undefined),TGI,A549 NSCLC,> 100 µM
same,TGI,ACHN renal,> 100 µM
same,TGI,DU-145 prostate,> 100 µM
same,TGI,HOP-92 NSCLC,> 100 µM
same,TGI,NCI-H226 lung,> 100 µM
same,TGI,NCI-H460 lung,> 100 µM
same,TGI,NCI/ADR-RES ovarian,> 100 µM
same,TGI,RXF 393 renal,> 100 µM
same,TGI,TK-10 renal,> 100 µM
same,TGI,UACC-257 melanoma,> 100 µM
Nc1ccc(-c2nc3cc(F)ccc3s2)cc1CO,TGI,A549 NSCLC,> 100 µM
same,TGI,ACHN renal,> 100 µM
same,TGI,DU-145 prostate,> 100 µM
same,TGI,HOP-92 NSCLC,43.5 µM
same,TGI,NCI-H226 lung,0.409 µM
same,TGI,NCI-H460 lung,> 100 µM
same,TGI,NCI/ADR-RES ovarian,> 100 µM
same,TGI,RXF 393 renal,34.9 µM
same,TGI,UACC-257 melanoma,> 100 µM
O=S(=O)(O)c1cc(N=[N+]([O-])c2cc(S(=O)(=O)O)c3ccccc3c2)cc2ccccc12,TGI,A549 NSCLC,> 100 µM
same,TGI,ACHN renal,> 100 µM
same,TGI,DU-145 prostate,40.1 µM
same,TGI,HOP-92 NSCLC,> 100 µM
same,TGI,NCI-H226 lung,> 100 µM
same,TGI,NCI-H460 lung,> 100 µM
same,TGI,NCI/ADR-RES ovarian,> 100 µM
same,TGI,RXF 393 renal,> 100 µM
same,TGI,TK-10 renal,> 100 µM
same,TGI,UACC-257 melanoma,> 100 µM
Cc1ccccc1NC(=O)CC(=O)N1N=C(N2c3ccccc3Sc3ccccc32)CC1c1ccccc1 (centres undefined),TGI,A549 NSCLC,> 100 µM
same,TGI,ACHN renal,> 100 µM
same,TGI,HOP-92 NSCLC,> 100 µM
same,TGI,NCI-H226 lung,> 100 µM
same,TGI,NCI-H460 lung,> 100 µM
same,TGI,TK-10 renal,> 100 µM
same,TGI,UACC-257 melanoma,> 100 µM
O=C1/C(=C\c2ccc(F)cc2)CCOc2c1ccc1ccccc21,TGI,A549 NSCLC,> 70.3 µM
same,GI50,ACHN renal,47.9 µM
same,TGI,ACHN renal,> 100 µM
same,TGI,DU-145 prostate,98 µM
same,TGI,HOP-92 NSCLC,71.5 µM
same,GI50,NCI-H226 lung,33.6 µM
same,TGI,NCI-H226 lung,> 100 µM
same,TGI,NCI-H460 lung,97.9 µM
same,TGI,NCI/ADR-RES ovarian,45.9 µM
same,TGI,RXF 393 renal,49.7 µM
same,TGI,TK-10 renal,60.7 µM
same,TGI,UACC-257 melanoma,54.4 µM
COc1ccc(C2c3cc4c(cc3OC(O)(CO)C2C(=O)O)OCO4)cc1 (centres undefined) (tested in a mixture with another compound),TGI,A549 NSCLC,> 100 µM
same,TGI,HOP-92 NSCLC,41.7 µM
same,TGI,NCI-H226 lung,47.7 µM
same,TGI,NCI-H460 lung,36.3 µM
same,TGI,RXF 393 renal,34.7 µM
same,TGI,TK-10 renal,> 100 µM
same,TGI,UACC-257 melanoma,50.8 µM
O=c1[nH]c(Nc2ccc(Cl)cc2)nc2nc[nH]c12,TGI,A549 NSCLC,> 100 µM
same,TGI,ACHN renal,> 100 µM
same,TGI,DU-145 prostate,> 100 µM
same,TGI,HOP-92 NSCLC,> 100 µM
same,TGI,NCI-H226 lung,> 100 µM
same,TGI,NCI-H460 lung,> 100 µM
same,TGI,NCI/ADR-RES ovarian,> 100 µM
same,TGI,TK-10 renal,> 100 µM
same,TGI,UACC-257 melanoma,> 100 µM
C1=CC(=[N+]2N=C(c3ccccc3)CC2c2ccccc2)C=CC1=C1SC(c2ccccc2)(c2ccccc2)c2ccccc21 (centres undefined),TGI,A549 NSCLC,> 100 µM
same,TGI,ACHN renal,> 100 µM
same,TGI,DU-145 prostate,> 100 µM
same,TGI,HOP-92 NSCLC,> 100 µM
same,TGI,NCI-H226 lung,> 100 µM
same,TGI,NCI-H460 lung,> 100 µM
same,TGI,NCI/ADR-RES ovarian,> 100 µM
same,TGI,RXF 393 renal,> 100 µM
same,TGI,TK-10 renal,> 100 µM
O=C1c2ccccc2C(C2c3ccccc3C(=O)c3cc(Br)ccc32)c2ccc(Br)cc21 (centres undefined),TGI,A549 NSCLC,> 100 µM
same,TGI,ACHN renal,> 100 µM
same,TGI,DU-145 prostate,> 100 µM
same,TGI,HOP-92 NSCLC,> 100 µM
same,TGI,NCI-H226 lung,> 100 µM
same,TGI,NCI/ADR-RES ovarian,> 100 µM
same,TGI,RXF 393 renal,> 100 µM
same,TGI,TK-10 renal,> 100 µM
same,TGI,UACC-257 melanoma,> 100 µM
CC(C)C1OC(=O)/C=C/C=C/C=C/C=C/C=C/CC(O)C(C)C(O)CC(O)CC(O)CC(O)CC(O)CC(O)CC(O)/C=C/C1C (centres undefined),TGI,A549 NSCLC,> 100 µM
same,TGI,ACHN renal,> 100 µM
same,TGI,HOP-92 NSCLC,> 100 µM
same,TGI,NCI-H460 lung,> 100 µM
same,TGI,NCI/ADR-RES ovarian,> 100 µM
same,TGI,TK-10 renal,> 100 µM
same,TGI,UACC-257 melanoma,> 100 µM
CSCCC(NC(=O)OCc1ccccc1)P(=O)(O)c1ccccc1 (centres undefined),TGI,A549 NSCLC,> 100 µM
same,TGI,ACHN renal,> 100 µM
same,TGI,DU-145 prostate,> 100 µM
same,TGI,HOP-92 NSCLC,> 100 µM
same,TGI,NCI-H226 lung,> 100 µM
same,TGI,NCI-H460 lung,> 100 µM
same,TGI,NCI/ADR-RES ovarian,> 100 µM
same,TGI,TK-10 renal,> 100 µM
same,TGI,UACC-257 melanoma,> 100 µM
CCOC(=O)C(=O)NCCCN1CCOCC1,TGI,A549 NSCLC,> 100 µM
same,TGI,ACHN renal,> 100 µM
same,TGI,HOP-92 NSCLC,> 100 µM
same,TGI,NCI-H226 lung,> 100 µM
same,TGI,NCI-H460 lung,> 100 µM
same,TGI,RXF 393 renal,> 100 µM
same,TGI,TK-10 renal,> 100 µM
same,TGI,UACC-257 melanoma,> 100 µM
CCCN1C(=O)CSC1=Nc1ccc2cc3ccc(N=C4SCC(=O)N4CCC)cc3nc2c1,GI50,A549 NSCLC,> 100 µM
same,TGI,A549 NSCLC,> 100 µM
same,GI50,ACHN renal,29.6 µM
same,TGI,ACHN renal,> 100 µM
same,GI50,DU-145 prostate,30.8 µM
same,TGI,DU-145 prostate,> 100 µM
same,GI50,HOP-92 NSCLC,0.0391 µM
same,TGI,HOP-92 NSCLC,0.334 µM
same,GI50,NCI-H226 lung,16.5 µM
same,TGI,NCI-H226 lung,> 100 µM
same,GI50,NCI-H460 lung,66.3 µM
same,TGI,NCI-H460 lung,> 100 µM
same,GI50,NCI/ADR-RES ovarian,63.1 µM
same,TGI,NCI/ADR-RES ovarian,> 100 µM
same,GI50,RXF 393 renal,75.8 µM
same,TGI,RXF 393 renal,> 100 µM
same,GI50,TK-10 renal,32.1 µM
same,TGI,TK-10 renal,90.6 µM
same,GI50,UACC-257 melanoma,> 100 µM
same,TGI,UACC-257 melanoma,> 100 µM
C/C(N=Nc1nc2ccccc2[nH]1)=C1/C=CC=CN1O,TGI,A549 NSCLC,> 100 µM
same,TGI,ACHN renal,> 100 µM
same,TGI,DU-145 prostate,> 100 µM
same,TGI,HOP-92 NSCLC,> 100 µM
same,TGI,NCI-H226 lung,> 100 µM
same,TGI,NCI-H460 lung,> 100 µM
same,TGI,NCI/ADR-RES ovarian,> 100 µM
same,TGI,RXF 393 renal,> 100 µM
same,TGI,TK-10 renal,> 100 µM
same,TGI,UACC-257 melanoma,> 100 µM
COC(=S)OC1CC(n2cnc3c(N)ncnc32)OC1CO[Si](C)(C)C(C)(C)C (centres undefined),TGI,DU-145 prostate,38.5 µM
same,TGI,HOP-92 NSCLC,59.3 µM
same,TGI,NCI-H226 lung,59.2 µM
same,TGI,NCI-H460 lung,48.1 µM
same,TGI,NCI/ADR-RES ovarian,82.6 µM
same,TGI,RXF 393 renal,25.9 µM
same,TGI,TK-10 renal,> 100 µM
same,TGI,UACC-257 melanoma,72.8 µM
O=C1CC2(CCC(O)(c3cccs3)C(C(=O)c3cccs3)C2)C(=O)c2ccccc2N1 (centres undefined),TGI,A549 NSCLC,> 100 µM
same,TGI,DU-145 prostate,> 100 µM
same,TGI,HOP-92 NSCLC,> 100 µM
same,TGI,NCI-H226 lung,> 100 µM
same,TGI,NCI-H460 lung,46.6 µM
same,TGI,NCI/ADR-RES ovarian,> 100 µM
same,TGI,RXF 393 renal,> 100 µM
same,TGI,TK-10 renal,> 100 µM
same,TGI,UACC-257 melanoma,> 100 µM
COC1CC(CC2CCC(C)C(C(C)C(=O)O)O2)OC2(OC(C)(C3CCC(C)(C4OC(C5OC(O)(CO)C(C)CC5C)CC4C)O3)CC2C)C1C (centres undefined),TGI,A549 NSCLC,21.8 µM
same,TGI,ACHN renal,45.1 µM
same,TGI,DU-145 prostate,> 100 µM
same,TGI,HOP-92 NSCLC,16.4 µM
same,TGI,NCI-H226 lung,21.3 µM
same,TGI,NCI-H460 lung,22 µM
same,GI50,NCI/ADR-RES ovarian,2.58 µM
same,TGI,NCI/ADR-RES ovarian,> 66.1 µM
same,TGI,RXF 393 renal,1.15 µM
same,TGI,TK-10 renal,36.8 µM
same,TGI,UACC-257 melanoma,4.07 µM
